The subject of series [1] is Mus musculus. The experiment in a line: Sleep-promoting activity in ddY mouse assessed as decrease in pentobarbital-induced sleep ing duration at 3 mg/kg relative to control. Also noted: scale not given: the % may be the effect or the level left. Type of series: functional.
Series [2] in a line: Sedative activity in ddY mouse assessed as decrease in spontaneous locomotor activity at 0.00004 mg administered via inhalation relative to control. Also noted: scale not given: the % may be the effect or the level left. The settings on record: in vivo, inhaled_or_intranasal, at 40 ng.
The test system of series [3] is Mus musculus. The experiment in a line: Sleep-promoting activity in ddY mouse assessed as enhancement of pentobarbital-induced sleep resulting in prolonged sleeping time at 0.000004 mg administered via inhalation relative to control. Type of series: functional. The settings on record: dose 4 ng.
Series [4] in a line: Sedative activity in ddY mouse assessed as decrease in spontaneous locomotor activity when administered via inhalation relative to control. Also noted: scale not given: the % may be the effect or the level left. The settings on record: in vivo, inhaled_or_intranasal.
A short description of series [5]: Sedative activity in ddY mouse assessed as decrease in spontaneous locomotor activity at 0.0004 mg administered via inhalation relative to control. Also noted: scale not given: the % may be the effect or the level left. The following applies: in vivo, inhaled_or_intranasal.
Series [6] in a line: Sedative activity in ddY mouse assessed as decrease in spontaneous locomotor activity at 0.004 mg administered via inhalation relative to control. The settings on record: in vivo, inhaled_or_intranasal. Also noted: scale not given: the % may be the effect or the level left.
Series [7] is described as follows: Sedative activity in ddY mouse assessed as decrease in spontaneous locomotor activity at 0.04 mg administered via inhalation relative to control. The following applies: in vivo, inhaled_or_intranasal. Also noted: scale not given: the % may be the effect or the level left.
Series [8] is described as follows: Sedative activity in ddY mouse assessed as decrease in spontaneous locomotor activity at 0.4 mg administered via inhalation relative to control. Also noted: scale not given: the % may be the effect or the level left. The settings on record: in vivo, inhaled_or_intranasal.
The nature of series [9]: Toxicity in mouse assessed as lethal dose. The settings on record: in vivo.
Series [10] can be described thus: Sedative activity in ddY mouse assessed as decrease in caffeine-induced spontaneous locomotor activity at 0.000004 mg administered via inhalation post caffeine stimulation (reference value: 68 %). Also noted: scale not given: the % may be the effect or the level left. The following applies: in vivo, inhaled_or_intranasal, at 4 ng.
Series [11] deals with Mus musculus. The experiment in a line: Myorelaxant effect in ddY mouse assessed as decrease in endurance latency time at 0.000004 mg administered via inhalation by rota-rod test. It counts as functional, organism-based. The following applies: dose 4 ng. In general terms: The rotarod test checks motor coordination on a turning rod.
The species named for series [12] is Mus musculus. The experiment in a line: Myorelaxant effect in ddY mouse assessed as decrease in endurance latency time by rota-rod test. Type of series: functional, organism-based.
Series [13] deals with Mus musculus. The experiment in a line: Sleep-promoting activity in ddY mouse assessed as enhancement of pentobarbital-induced sleep resulting in prolonged sleeping time at 0.004 mg administered via inhalation relative to control. Type of series: functional.
Series [14] is described as follows: Sedative activity in ddY mouse assessed as decrease in caffeine-induced spontaneous locomotor activity at 0.004 mg administered via inhalation post caffeine stimulation (reference value: 68 %). The following applies: in vivo, inhaled_or_intranasal. Also noted: scale not given: the % may be the effect or the level left.
The subject of series [15] is Mus musculus. The experiment in a line: Myorelaxant effect in ddY mouse assessed as decrease in endurance latency time at 0.004 mg administered via inhalation by rota-rod test. Type of series: functional, organism-based.

Calls of active or inactive are those of the source. No cut-off for these calls is given here.

`CCOC(=O)c1ncn2c1CN(C)C(=O)c1cc(F)ccc1-2` [FLUMAZENIL]: in series [1], the Activity is given as 31%.

In general, LD50 refers to the dose expected to kill half of the subjects tested. On to `Cc1ccc(C(C)C)cc1` [P-CYMENE], for which the Activity in [2] turned out to be 69%; in [3], 77%; in series [4], 63%; in series [5] it was 57%; in series [6] it was 61%; in [7], 67%. For the same molecule, the Activity is given as 68% in series [8] and 50% in [10]. The LD50 in series [9] was determined as 4750 mg/kg. Besides, the outcome in series [11] was inactive.

As to `CN1C(=O)CN=C(c2ccccc2)c2cc(Cl)ccc21`, the outcome in series [12] was Active.

For `CC(C)C12C=CC(C)(CC1)OO2` (configuration not stated) [ASCARIDOLE], the Activity is 64% in [2]; 42% in [13]; 56% in [4]; 52% in series [5]; 67% in series [6]; 64% in series [7]. In addition, the values for the Activity in series [8] and in series [14] were 56% and 47%, respectively. In [9], the LD50 was determined as 400 mg/kg. In addition, the result in [15] was inactive.

The values are drawn from ChEMBL document CHEMBL4834391, “Role of Ascaridole and p-Cymene in the Sleep-Promoting Effects of Dysphania ambrosioides Essential Oil via the GABAergic System in a ddY Mouse Inhalation Model” (J Nat Prod, 2021).
